Structures are written as SMILES.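 Compound exposure: 48 hours, 5 concentrations, 96-well plates. GI50 = concentration required for 50% inhibition of growth.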 Active and inactive are the calls of the source. Rule as the data show it: active = GI50 up to about 1.1 µM and inactive = higher.

Test systems include SF-539; UACC-257; SF-268; SNB-75; K562; CAKI-1; OVCAR-5; OVCAR-4; SK-MEL-5; U-251; HOP-62; Malme-3M; NCI-H460; A549; SW-620; SNB-19; RPMI-8226; HCT-15; SK-MEL-2; NCI-H226.
Assay in all cases: DTP human tumour cell line panel, 48 h

In general, GI50 refers to the concentration giving 50% growth inhibition. Take `Nc1c(Br)c(=O)[nH]c(=O)n1COCCO`: the GI50 in the assay on SF-539, with UACC-257, with SF-268, in the assay with SNB-75, in the assay with K562 and in the assay with CAKI-1 was > 100 µM (inactive) in each case. Moreover, the GI50 with OVCAR-5, in the assay on OVCAR-4, with SK-MEL-5, in the assay on U-251, with HOP-62 and in the assay on Malme-3M was > 100 µM (inactive) each time. Besides, the GI50 in the assay on NCI-H460, with A549, with SW-620 and with SNB-19 was > 100 µM (inactive) in each case.

`CCOC(=O)NC(=S)NN(C)C1=NCC(C)(C)S1`: the GI50 in the assay with SF-539, with UACC-257, with RPMI-8226, with SNB-75, with K562 and in the assay with CAKI-1 was > 100 µM (inactive) throughout. The GI50 was > 100 µM (inactive) in the assay on OVCAR-5; > 100 µM (inactive) with SK-MEL-5; > 100 µM (inactive) with U-251; > 100 µM (inactive) in the assay with HOP-62; > 100 µM (inactive) in the assay on NCI-H460; more than 100 µM in the assay with HCT-15. For the same compound, the GI50 with SK-MEL-2, in the assay with A549, with SW-620 and in the assay with SNB-19 was > 100 µM (inactive) each time.

As for `CC(C)=CC(=O)c1[nH]c2ccccc2c1CC(=O)NCCc1c[nH]cn1`, the GI50 with SF-539, in the assay with UACC-257, in the assay with SF-268, in the assay with SNB-75, in the assay on K562 and in the assay on CAKI-1 was > 100 µM (inactive) each time. In addition, the GI50 with OVCAR-5, with OVCAR-4, in the assay on SK-MEL-5, in the assay on U-251, with Malme-3M and in the assay on NCI-H460 was > 100 µM (inactive) throughout. Besides, the GI50 was more than 100 µM in the assay with HCT-15; > 100 µM (inactive) with SK-MEL-2; > 100 µM (inactive) in the assay with A549; > 100 µM (inactive) in the assay on SW-620; > 100 µM (inactive) in the assay on SNB-19; > 100 µM (inactive) in the assay on NCI-H226.

Regarding `Cn1c(=O)c2c(nc(NCCCCl)n2CC(=O)NCCCCl)n(C)c1=O`, the GI50 in the assay on UACC-257, with SF-268, in the assay with RPMI-8226, in the assay on SNB-75, with K562 and with CAKI-1 was > 100 µM (inactive) in each case. In addition, the GI50 in the assay with OVCAR-5, with OVCAR-4, in the assay with SK-MEL-5, in the assay on U-251, with HOP-62 and in the assay on NCI-H460 was > 100 µM (inactive) each time. The GI50 in the assay on HCT-15 is more than 100 µM; in the assay on SK-MEL-2, > 100 µM (inactive); with A549, > 100 µM (inactive); with SW-620, > 100 µM (inactive); with SNB-19 it was > 100 µM (inactive); with NCI-H226, > 100 µM (inactive).

Consider `COC(=O)C1=C(C(=O)OC)C(OO)(c2ccccc2)OC1=O` (stereo not given), for which the GI50 in the assay on SF-539 was 33.3 µM (inactive); with UACC-257, > 100 µM (inactive); in the assay on SNB-75, 50.7 µM (inactive); with K562, 52.7 µM (inactive); in the assay on CAKI-1, > 100 µM (inactive); in the assay on OVCAR-5 it was 40.6 µM (inactive). Besides, the GI50 is > 100 µM (inactive) in the assay with OVCAR-4; 50.2 µM (inactive) in the assay with SK-MEL-5; 37.4 µM (inactive) in the assay on U-251; > 100 µM (inactive) in the assay on Malme-3M; 48.6 µM (inactive) in the assay on NCI-H460; 40.6 µM in the assay with HCT-15. Besides, the GI50 in the assay on SK-MEL-2 was 55.2 µM (inactive); in the assay on A549 it was > 100 µM (inactive); in the assay with SW-620 it was > 100 µM (inactive); in the assay with SNB-19, > 100 µM (inactive); in the assay on NCI-H226 it was > 100 µM (inactive).

Take `CC1CCC(O)(C(C)(C(=O)O)c2ccccc2)CC1` (stereo not given): the GI50 was > 100 µM (inactive) in the assay on UACC-257; > 100 µM (inactive) with SF-268; > 100 µM (inactive) in the assay with K562; 57.4 µM (inactive) in the assay with CAKI-1; > 100 µM (inactive) in the assay with OVCAR-5; > 100 µM (inactive) in the assay with OVCAR-4. The GI50 in the assay on SK-MEL-5 was > 100 µM (inactive); in the assay with U-251, 64 µM (inactive); in the assay on HOP-62, 68.1 µM (inactive); with Malme-3M it was 63.4 µM (inactive); in the assay on NCI-H460 it was 42.8 µM (inactive); in the assay on HCT-15, more than 100 µM. Further, the GI50 in the assay on SK-MEL-2 is > 100 µM (inactive); with A549, 42.2 µM (inactive); in the assay with SW-620, > 100 µM (inactive); in the assay on SNB-19, 48.3 µM (inactive); in the assay on NCI-H226, 91.6 µM (inactive).

Regarding `Cn1c(=O)n2n(c1=O)C([S+]([O-])c1ccccc1)C2` (stereo not given), the GI50 in the assay with SF-539, in the assay with UACC-257, in the assay on SF-268, in the assay with RPMI-8226, in the assay with SNB-75 and with K562 was > 100 µM (inactive) in each case. Moreover, the GI50 in the assay with CAKI-1, in the assay on OVCAR-5, in the assay on OVCAR-4, in the assay on SK-MEL-5, in the assay on U-251 and in the assay on HOP-62 was > 100 µM (inactive) throughout. Besides, the GI50 is > 100 µM (inactive) in the assay with NCI-H460; more than 100 µM in the assay with HCT-15; > 100 µM (inactive) in the assay with SK-MEL-2; 65.2 µM (inactive) in the assay with A549; > 100 µM (inactive) with SW-620; > 100 µM (inactive) in the assay on SNB-19.

On to `COc1ccc2c(c1)CCCC1C3=NCCC3(C)CSC21` (stereo not given), for which the GI50 in the assay with SF-539 was 51.6 µM (inactive); in the assay with SF-268, > 100 µM (inactive); in the assay with RPMI-8226, 55.8 µM (inactive); in the assay with SNB-75, 67.8 µM (inactive); with K562 it was 31 µM (inactive); in the assay on OVCAR-4, > 100 µM (inactive). The GI50 is 42.8 µM (inactive) in the assay on SK-MEL-5; 74.5 µM (inactive) with U-251; 74 µM (inactive) in the assay on NCI-H460; > 100 µM (inactive) with A549; > 100 µM (inactive) with SW-620; > 100 µM (inactive) with SNB-19.

Take `O=Cc1[nH]c2ccccc2c1Br`: the GI50 is 15.3 µM (inactive) in the assay with SF-539; 28.5 µM (inactive) in the assay on UACC-257; 22.9 µM (inactive) in the assay with SF-268; 19.2 µM (inactive) with SNB-75; 15 µM (inactive) with K562; > 100 µM (inactive) with CAKI-1. In addition, the GI50 is 98.4 µM (inactive) in the assay with OVCAR-5; 31.3 µM (inactive) with OVCAR-4; 16.5 µM (inactive) with SK-MEL-5; 21.6 µM (inactive) in the assay with U-251; 18 µM (inactive) in the assay with HOP-62; 18.5 µM (inactive) in the assay with Malme-3M. The GI50 in the assay with SK-MEL-2 was 15.2 µM (inactive); in the assay with A549, > 100 µM (inactive); in the assay with SW-620, 34.6 µM (inactive); in the assay on SNB-19, 24.8 µM (inactive); in the assay with NCI-H226, 29.8 µM (inactive).

For `OCC1C(OCc2ccccc2)C(OCc2ccccc2)C(OCc2ccccc2)CN1Cc1ccccc1` (stereo not given), the GI50 in the assay on SF-539 is 73.5 µM (inactive); in the assay with UACC-257, 19.6 µM (inactive); with SF-268, 65.5 µM (inactive); with SNB-75 it was 13 µM (inactive); with K562 it was 16.3 µM (inactive); in the assay on CAKI-1, > 100 µM (inactive). The GI50 in the assay on OVCAR-5 is 37.5 µM (inactive); with OVCAR-4, 46.7 µM (inactive); in the assay with U-251 it was 27.3 µM (inactive); in the assay with HOP-62, 33 µM (inactive); in the assay with Malme-3M it was 27.9 µM (inactive); in the assay on NCI-H460 it was 14.5 µM (inactive). Moreover, the GI50 in the assay with HCT-15 is 30.5 µM; in the assay with A549, 18.7 µM (inactive); in the assay on SW-620, 53 µM (inactive); with SNB-19 it was 96.8 µM (inactive); with NCI-H226, 33.8 µM (inactive).

`C[C@@H](C1CCC2C3C(=CC(=O)[C@@]21C)[C@H](C)[C@]1(CCC(=O)O1)C1OC31)[C@H]1C[C@]2(C)O[C@@](C)(O1)OC2(C)C` (stereo not given in full): the GI50 in the assay on SF-539, in the assay on SF-268, in the assay with RPMI-8226, in the assay on K562, in the assay on CAKI-1 and in the assay with SK-MEL-5 was > 100 µM (inactive) each time. The GI50 is > 100 µM (inactive) with U-251; > 100 µM (inactive) with NCI-H460; more than 100 µM in the assay with HCT-15; > 100 µM (inactive) in the assay on A549; > 100 µM (inactive) in the assay on SW-620; > 100 µM (inactive) in the assay with SNB-19.

With `CCc1cccc2c3c([nH]c12)-c1ccccc1NC(=O)C3`, the GI50 is > 100 µM (inactive) with UACC-257; 48.2 µM (inactive) in the assay with SF-268; 67.5 µM (inactive) in the assay with RPMI-8226; 13.2 µM (inactive) in the assay on SNB-75; 19.4 µM (inactive) with K562; 43.6 µM (inactive) with CAKI-1. Further, the GI50 with OVCAR-5 is > 100 µM (inactive); in the assay on SK-MEL-5 it was > 100 µM (inactive); in the assay on U-251 it was > 100 µM (inactive); in the assay with HOP-62 it was > 100 µM (inactive); in the assay on NCI-H460 it was > 100 µM (inactive); with HCT-15, 84.1 µM. The GI50 in the assay on SK-MEL-2 is > 100 µM (inactive); in the assay on A549 it was > 100 µM (inactive); in the assay with SW-620, > 100 µM (inactive); in the assay with SNB-19, > 100 µM (inactive); with NCI-H226, 14.1 µM (inactive).

For the origin of these results see ChEMBL document CHEMBL1201862, “PubChem BioAssay data set” (2004).
